Results published in US20240343694A1, “PYRIMIDINE DERIVATIVE, METHOD FOR PREPARING SAME, AND PHARMACEUTICAL COMPOSITION FOR PREVENTING OR TREATING CANCER COMPRISING SAME AS ACTIVE INGREDIENT” (KOREA RESERARCH INSTITUTE OF CHEMICAL TECHNOLOGY, priority 2021, published 2024).
pIC50: −log10 of the molar value.

What was measured:
[1] = tested on: Ba/F3 EGFR V769_D770insASV; test: Growth inhibition of Ba/F3 EGFR mutant cells (CellTiter-Glo); type: cell-based; conditions: 72 hours
Method: (§1) The activity of the compounds of the present invention against Ba/F3 EGFR V769_D770insASV and Ba/F3 EGFR D770_N771insSVD mutant cell lines was measured using the CellTiter-Glo system purchased from Promega as follows. CellTiter-Glo assay is a method to measure cell viability by monitoring ATP present in cells. Ba/F3 EGFR V769_D770insASV and Ba/F3 EGFR D770_N771insSVD mutant cell lines were purchased from Crown Biosciences. Ba/F3 EGFR V769_D770insASV and Ba/F3 EGFR D770_N771insSVD mutant cell lines were cultured in RPMI containing 10% FBS and 1% penicillin-streptomycin with 1 μg/mL of puromycin in a 5% CO2 incubator at 37° C.
(§2) The analysis of the ability of the compounds to inhibit the growth of EGFR mutant cells was performed according to the following method. 1,000 cells/100 μL were seeded in a 96-well cell culture plate, and 24 hours thereafter, the compounds represented by Formula 1 were treated with 0 μM, 0.01 μM, 0.03 μM, 0.1 μM, 0.3 μM, 1 μM, 3 μM, and 10 μM. After incubating for 72 hours, the plate treated with the compounds were left at room temperature for 30 minutes, 100 μL of a reagent was further added thereto, and then shaken at room temperature for 10 minutes. Finally, using equipment, the ratio of […] was measured to confirm the cell growth inhibition ability of the compounds. The measured values at 8 compound concentrations were analyzed using the Prism program (version 5.01, Graphpad Software, Inc.), and the IC50 (μM) values, which are measures of the compounds' inhibitory ability, were calculated.

[2] = tested on: Ba/F3 EGFR D770_N771insSVD; test: as above; type: cell-based; conditions: Ba/F3 EGFR-D770-N771ins_SVD, 72 hours
Method: as §1, §2

EGFR A763_Y764insFHEA = EGFR A763_Y764insFHEA (Homo sapiens (Human), UniProt P00533, INS763FHEA); test: HTRF inhibitory activity against EGFR mutant enzyme (EGFR A763_Y764insFHEA); type: biochemical; conditions: recombinant enzyme, 37° C. for 2 hours
Chain of EGFR A763_Y764insFHEA (P00533 other isoform, or with tags, fused parts or gaps del 1-694/ins FHEA behind 763 limits assumed): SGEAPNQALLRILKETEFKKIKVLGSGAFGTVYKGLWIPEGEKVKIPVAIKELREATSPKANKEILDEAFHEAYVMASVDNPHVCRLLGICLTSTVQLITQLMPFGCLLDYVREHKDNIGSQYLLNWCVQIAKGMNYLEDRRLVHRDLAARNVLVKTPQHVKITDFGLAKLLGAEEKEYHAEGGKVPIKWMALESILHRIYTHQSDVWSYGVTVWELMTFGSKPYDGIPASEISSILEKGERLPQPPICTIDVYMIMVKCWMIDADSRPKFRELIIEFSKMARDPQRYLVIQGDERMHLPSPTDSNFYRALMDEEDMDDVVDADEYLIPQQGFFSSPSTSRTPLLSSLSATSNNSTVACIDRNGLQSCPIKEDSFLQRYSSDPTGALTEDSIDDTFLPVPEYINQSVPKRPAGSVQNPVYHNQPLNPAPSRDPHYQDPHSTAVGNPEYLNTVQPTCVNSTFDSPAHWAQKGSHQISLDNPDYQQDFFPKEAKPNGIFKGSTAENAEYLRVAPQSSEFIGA
Procedure, shortened: (§3)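 Recombinant EGFR del19 or A763_Y764insFHEA was premixed with compound in 50 mM Tris pH 7.5 with 7.5 mM MgCl2 and 1 mM DTT. ATP (50 mM as printed) and biotin-peptide (0.5 mM) were added and reacted 2 h at 37 °C. The HTRF 665/615 read used streptavidin-XL665 and Eu anti-phosphotyrosine. IC50 was fitted from 7 concentrations.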

EGFR del19 = EGFR del19 (Homo sapiens (Human), UniProt P00533, DEL746-750); test: HTRF inhibitory activity against EGFR mutant enzyme (EGFR del19); type: biochemical; conditions: recombinant enzyme, 37° C. for 2 hours
Chain of EGFR del19 (P00533 other isoform, or with tags, fused parts or gaps del 1-668/del 746-750 limits assumed): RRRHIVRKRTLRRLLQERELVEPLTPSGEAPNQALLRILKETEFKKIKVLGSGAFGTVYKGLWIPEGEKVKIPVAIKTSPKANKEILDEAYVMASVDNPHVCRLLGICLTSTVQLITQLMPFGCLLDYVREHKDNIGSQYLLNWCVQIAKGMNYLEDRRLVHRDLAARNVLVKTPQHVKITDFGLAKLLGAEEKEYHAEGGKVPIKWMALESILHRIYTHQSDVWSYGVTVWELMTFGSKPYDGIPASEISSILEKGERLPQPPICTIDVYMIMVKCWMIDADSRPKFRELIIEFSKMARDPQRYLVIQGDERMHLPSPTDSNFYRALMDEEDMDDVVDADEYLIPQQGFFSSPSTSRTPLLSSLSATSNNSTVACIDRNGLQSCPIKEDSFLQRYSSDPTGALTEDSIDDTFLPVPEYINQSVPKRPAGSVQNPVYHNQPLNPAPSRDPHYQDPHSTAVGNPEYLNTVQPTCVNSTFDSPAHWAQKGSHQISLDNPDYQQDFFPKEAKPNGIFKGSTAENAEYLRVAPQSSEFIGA
Procedure, shortened: as §3

Ba/F3 HER2 G776delinsVC = test: Growth inhibition of Ba/F3 HER2 mutant cells (CellTiter-Glo); type: cell-based; conditions: Mus musculus, BaF3, 72 hours
Method: as §1, with “HER2 A775_G776insYVMA” for “EGFR V769_D770insASV”, “HER2 G776delinsVC” for “EGFR D770_N771insSVD”, “a” for “a 5%”
as §2, with “HER2” for “EGFR”, “reacting” for “incubating”, “was” for “was further”

[3] = tested on: Ba/F3 HER2 A775_G776insYVMA; test: as above; type: cell-based; conditions: Mus musculus, BaF3, 72 hours
Method: as §1, with “HER2 A775_G776insYVMA” for “EGFR V769_D770insASV”, “HER2 G776delinsVC” for “EGFR D770_N771insSVD”, “a” for “a 5%”
as §2, with “HER2” for “EGFR”, “reacting” for “incubating”, “was” for “was further”

HER2 A775_G776insYVMA = HER2 A775_G776insYVMA (Homo sapiens (Human), UniProt P04626, INS775YVMA); test: HTRF inhibitory activity against HER2 mutant enzyme; type: biochemical; conditions: recombinant enzyme, 37° C. for 2 hours
Chain of HER2 A775_G776insYVMA (P04626 other isoform, or with tags, fused parts or gaps del 1-675/ins YVMA behind 775 limits assumed): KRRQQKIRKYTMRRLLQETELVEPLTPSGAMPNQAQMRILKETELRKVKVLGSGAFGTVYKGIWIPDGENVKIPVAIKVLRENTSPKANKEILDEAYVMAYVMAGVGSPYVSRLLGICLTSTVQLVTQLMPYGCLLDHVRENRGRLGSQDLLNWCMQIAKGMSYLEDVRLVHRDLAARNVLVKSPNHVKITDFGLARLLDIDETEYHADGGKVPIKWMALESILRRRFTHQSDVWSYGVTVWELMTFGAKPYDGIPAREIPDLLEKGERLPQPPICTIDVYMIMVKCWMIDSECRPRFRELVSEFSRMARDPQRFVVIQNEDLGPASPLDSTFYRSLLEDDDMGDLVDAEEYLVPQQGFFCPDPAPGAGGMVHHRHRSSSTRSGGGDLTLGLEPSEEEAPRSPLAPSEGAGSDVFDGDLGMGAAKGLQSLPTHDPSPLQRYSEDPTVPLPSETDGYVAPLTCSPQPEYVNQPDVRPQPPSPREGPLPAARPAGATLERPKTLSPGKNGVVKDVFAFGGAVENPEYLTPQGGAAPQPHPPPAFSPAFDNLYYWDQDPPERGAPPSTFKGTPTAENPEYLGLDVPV
Procedure, shortened: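 Recombinant HER2 A775_G776insYVMA preincubated with compound, then […] and biotinylated peptide ([…]) added; 2 h at 37 °C in Tris-HCl pH 7.5 buffer with MgCl2, DTT. HTRF detection (Eu anti-phosphotyrosine/streptavidin-XL665); IC50 from 7 concentrations.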

pIC50 [1]	pIC50 [2]	pIC50 (EGFR A763_Y764insFHEA)	pIC50 (EGFR del19)	pIC50 (Ba/F3 HER2 G776delinsVC)	pIC50 [3]	pIC50 (HER2 A775_G776insYVMA)	Compound
< 7.00	< 7.00	8.52	> 9.00	7.52 to 8.00	< 7.00	7.66	C=CC(=O)Nc1cc(Nc2ncc(Cl)c(Nc3ccccc3NS(C)(=O)=O)n2)c(OC)cc1OCCN1CCCC1 [Example 22, N-(5-((5-chloro-4-((2-(methylsulfonamido)phenyl)amino)pyrimidin-2-yl)amino)-4-methoxy-2-(2-(pyrrolidin-1-yl)ethoxy)phenyl)acrylamide]
< 7.00	< 7.00	8.52	> 9.00	7.52 to 8.00	< 7.00	7.57	C=CC(=O)Nc1cc(Nc2ncc(Cl)c(Nc3ccccc3NS(C)(=O)=O)n2)c(OC)cc1N(C)CCNC(C)C [Example 24, N-(5-((5-chloro-4-((2-(methylsulfonamido)phenyl)amino)pyrimidin-2-yl)amino)-2-((2-(isopropylamino)ethyl)(methyl)amino)-4-methoxyphenyl)acrylamide]
< 7.00	< 7.00	> 9.00	> 9.00	< 7.00	< 7.00	8.22	C=CC(=O)Nc1cc(Nc2ncc(Cl)c(Nc3ccccc3NS(C)(=O)=O)n2)c(OC)cc1N(C)CCNC [Example 25, N-(5-((5-chloro-4-((2-(methylsulfonamido)phenyl)amino)pyrimidin-2-yl)amino)-4-methoxy-2-(methyl(2-(methylamino)ethyl)amino)phenyl)acrylamide]
7.52 to 8.00	7.52 to 8.00	> 9.00	> 9.00	7.52 to 8.00	7.00 to 7.30	8.30	C=CC(=O)Nc1cc(Nc2ncc(Cl)c(Nc3ccccc3N(C)S(C)(=O)=O)n2)c(OC)cc1N(C)CCN(C)C [Example 29, N-(5-((5-chloro-4-((2-(N-methylmethylsulfonamido)phenyl)amino)pyrimidin-2-yl)amino)-2-((2-(dimethylamino)ethyl)(methyl)amino)-4-methoxyphenyl)acrylamide]
> 8.00	7.30 to 7.52	> 9.00	> 9.00	> 8.00	7.30 to 7.52	8.40	C=CC(=O)Nc1cc(Nc2ncc(Cl)c(Nc3ccccc3N(C)S(=O)(=O)CC)n2)c(OC)cc1N(C)CCN(C)C [Example 30, N-(5-((5-chloro-4-((2-(N-methylethylsulfonamido)phenyl)amino)pyrimidin-2-yl)amino)-2-((2-(dimethylamino)ethyl)(methyl)amino)-4-methoxyphenyl)acrylamide]
> 8.00	7.30 to 7.52	> 9.00	> 9.00	> 8.00	> 8.00	9.52	C=CC(=O)Nc1cc(Nc2ncc(Cl)c(Nc3ccccc3N(CC)S(C)(=O)=O)n2)c(OC)cc1N(C)CCN(C)C [Example 31, N-(5-((5-chloro-4-((2-(N-ethylmethylsulfonamido)phenyl)amino)pyrimidin-2-yl)amino)-2-((2-(dimethylamino)ethyl)(methyl)amino)-4-methoxyphenyl)acrylamide]
7.30 to 7.52	7.30 to 7.52	9.00	> 9.00	> 8.00	7.30 to 7.52	8.10	C=CC(=O)Nc1cc(Nc2ncc(Cl)c(Nc3ccccc3N(C(C)C)S(C)(=O)=O)n2)c(OC)cc1N(C)CCN(C)C [Example 32, N-(5-((5-chloro-4-((2-(N-isopropylmethylsulfonamido)phenyl)amino)pyrimidin-2-yl)amino)-2-((2-(dimethylamino)ethyl)(methyl)amino)-4-methoxyphenyl)acrylamide]
> 8.00	7.30 to 7.52	> 9.00	> 9.00	> 8.00	7.30 to 7.52	8.15	C=CC(=O)Nc1cc(Nc2ncc(Cl)c(Nc3ccccc3N(CC)S(=O)(=O)CC)n2)c(OC)cc1N(C)CCN(C)C [Example 33, N-(5-((5-chloro-4-((2-(N-ethylethylsulfonamido)phenyl)amino)pyrimidin-2-yl)amino)-2-((2-(dimethylamino)ethyl)(methyl)amino)-4-methoxyphenyl)acrylamide]
7.30 to 7.52	7.30 to 7.52	8.52	> 9.00	> 8.00	7.00 to 7.30	7.57	C=CC(=O)Nc1cc(Nc2ncc(Cl)c(Nc3cccc(Cl)c3N(C)S(C)(=O)=O)n2)c(OC)cc1N(C)CCN(C)C [Example 35, N-(5-((5-chloro-4-((3-chloro-2-(N-methylmethylsulfonamido)phenyl)amino)pyrimidin-2-yl)amino)-2-((2-(dimethylamino)ethyl)(methyl)amino)-4-methoxyphenyl)acrylamide]
7.52 to 8.00	7.52 to 8.00	9.00	> 9.00	7.52 to 8.00	7.00 to 7.30	8.00	C=CC(=O)Nc1cc(Nc2ncc(Cl)c(Nc3cccc(C)c3NS(C)(=O)=O)n2)c(OC)cc1N(C)CCN(C)C [Example 36, N-(5-((5-chloro-4-((3-methyl-2-(methylsulfonamido)phenyl)amino)pyrimidin-2-yl)amino)-2-((2-(dimethylamino)ethyl)(methyl)amino)-4-methoxyphenyl)acrylamide]
7.00 to 7.30	7.00 to 7.30	8.70	> 9.00	7.30 to 7.52	7.00 to 7.30	7.59	C=CC(=O)Nc1cc(Nc2ncc(Cl)c(Nc3cccc(C(C)C)c3N(C)S(C)(=O)=O)n2)c(OC)cc1N(C)CCN(C)C [Example 37, N-(5-((5-chloro-4-((3-isopropyl-2-(N-methylmethylsulfonamido)phenyl)amino)pyrimidin-2-yl)amino)-2-((2-(dimethylamino)ethyl)(methyl)amino)-4-methoxyphenyl)acrylamide]
7.30 to 7.52	7.30 to 7.52	8.70	> 9.00	> 8.00	7.30 to 7.52	7.85	C=CC(=O)Nc1cc(Nc2ncc(Cl)c(Nc3cccc(C)c3N(C)S(C)(=O)=O)n2)c(OC)cc1N(C)CCN(C)C [Example 38, N-(5-((5-chloro-4-((3-methyl-2-(N-methylmethylsulfonamido)phenyl)amino)pyrimidin-2-yl)amino)-2-((2-(dimethylamino)ethyl)(methyl)amino)-4-methoxyphenyl)acrylamide]
